Measured values published in patent US12714721B2, “Methods of treatment of a cytokine storm” (Loma Linda University Health, priority 2020, dated 2026).

Tested on: LPS-treated animals
Test: Survival study of LPS-treated animals with teriflunomide
Assay type: in vivo
Details: 20 mg/kg of LPS i.p. and 4 mg of teriflunomide
Experimental: A survival study was performed with sixteen animals per group of LPS-treated animals following no treatment and treatment with teriflunomide. The control group received 20 mg/kg of LPS i.p. and no treatment; whereas the teriflunomide group received 20 mg/kg of LPS and 4 mg of teriflunomide. None of the control animals lived up to 24 hours, whereas 6 of the teriflunomide treat animals lived out to 96 hours at which time they appeared normal. The P value for the difference was less than 0.0021. FIG. 20 is a graphical representation of the survival of LPS-treated animals following no treatment and treatment with teriflunomide. All of the animals were treated with 20 mg/kg of LPS i.p. Kaplan-Meier survival in response to LPS administration. Comparison of the trend of survival curve was done using the log-rank (Mantel-Cox) test (recommended), and ** p<0.01.

C/C(O)=C(\C#N)C(=O)Nc1ccc(C(F)(F)F)cc1 [teriflunomide]
Median survival (Kaplan-Meier): 48.00 | animals that lived out to 96 hours (sixteen animals per group): 6
